Measurements: patent publication US8822430B2 (Gilead Sciences, Inc., priority 2009, dated 2014)

system: HCV 1b RLuc cells (dicistronic genotype 1b Con1 replicon); assay: Renilla luciferase (RLuc)-based HCV replicon reporter assay; assay type: cell-based, HCV genotype 1b; conditions: HCV 1b RLuc replicon, 72 hours; read-out: Activity (antiviral potency [EC50])
Outline: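 HCV 1b RLuc cells carrying a dicistronic genotype 1b Con1 replicon were treated with serially diluted compounds from 10 mM DMSO stocks. After 72 h, cells were lysed and Renilla luciferase activity measured. EC50 was obtained by non-linear regression.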

`COC(=O)N[C@H](C(=O)N1CCC[C@H]1c1ncc(-c2ccc(-c3ccc(-c4cnc([C@@H]5CSC(c6ccncc6)N5C(=O)OCc5ccccc5)[nH]4)cc3)cc2)[nH]1)C(C)C` (single isomer, unassigned) [drawing 1302] was tested, and the EC50 was 0.0209 nM.

same assay, conditions: Hepatitis C virus, 72 h, HCV 1b RLuc replicon, 72 hours; read-out: Activity (antiviral potency [EC50])

Going from `COC(=O)N[C@H](C(=O)N1CCC[C@H]1c1ncc(-c2ccc(C#Cc3ccc(-c4cnc([C@@H]5CN(S(=O)(=O)N(C)C)CCN5C(=O)[C@@H](NC(=O)OC)C(C)C)[nH]4)cc3)cc2)[nH]1)C(C)C` to `COC(=O)N[C@H](C(=O)N1CCCC[C@H]1c1ncc(-c2ccc(C#Cc3ccc(-c4cnc([C@@H]5CCCN5C(=O)[C@@H](NC(=O)OC)C(C)C)[nH]4)cc3)cc2)[nH]1)C(C)C`, the EC50 falls from 0.053 nM to 0.0224 nM (2.4-fold). The second is the more potent here.

Going from `COC(=O)N[C@H](C(=O)N1CCC[C@H]1c1ncc(-c2ccc3cc(-c4ccc5nc([C@@H]6CCCN6C(=O)[C@@H](NC(=O)OC)C(C)C)[nH]c5c4)ccc3c2)[nH]1)C(C)C` to `COC(=O)N[C@H](C(=O)N1CCC[C@H]1c1ncc(-c2ccc3cc(-c4ccc5[nH]c([C@@H]6CCN6C(=O)[C@@H](NC(=O)OC)C(C)C)nc5c4)ccc3c2)[nH]1)C(C)C`, the EC50 rises from 0.0067 nM to 0.026 nM (3.9-fold).

Going from `COC(=O)N[C@H](C(=O)N1CCC[C@H]1c1ncc(-c2ccc(C#Cc3ccc(-c4cnc([C@@H]5CN(C(=O)OC(C)(C)C)CN5C(=O)[C@@H](NC(=O)OC)C(C)C)[nH]4)cc3)cc2)[nH]1)C(C)C` to `COC(=O)N[C@H](C(=O)N1CCC[C@H]1c1ncc(-c2ccc(C#Cc3ccc(-c4cnc([C@H]5N(C(=O)[C@@H](NC(=O)OC)C(C)C)CSC5(C)C)[nH]4)cc3)cc2)[nH]1)C(C)C`, the EC50 falls from 0.318 nM to 0.0424 nM (7.5-fold). The second is the more potent here.

Compared with `COC(=O)N[C@@H](CS(C)(=O)=O)C(=O)N1[C@@H]2CC[C@@H](C2)[C@H]1c1nc2ccc(-c3ccc4c(c3)C(F)(F)c3cc(-c5cnc([C@@H]6CC7(CC7)CN6C(=O)[C@@H](NC(=O)OC)C(C)C)[nH]5)ccc3-4)cc2[nH]1`, `COC(=O)N[C@@H](CCS(C)(=O)=O)C(=O)N1[C@@H]2CC[C@@H](C2)[C@H]1c1nc2ccc(-c3ccc4c(c3)C(F)(F)c3cc(-c5cnc([C@@H]6CC7(CC7)CN6C(=O)[C@@H](NC(=O)OC)C(C)C)[nH]5)ccc3-4)cc2[nH]1` is 4.4-fold higher in EC50: 0.005 nM for the first, 0.0218 nM for the second. The first is the more potent here.

Compared with `COC(=O)N[C@H](C(=O)N1CCC[C@H]1c1nc2ccc(-c3ccc4nc([C@@H]5CCCN5C(=O)[C@@H](NC(=O)OC)C(C)C)[nH]c4c3)cc2[nH]1)C(C)C`, `COC(=O)N[C@H](C(=O)N1CCC[C@H]1c1nc2ccc(-c3ccc(-c4ccc5nc([C@@H]6CCCN6C(=O)[C@@H](NC(=O)OC)C(C)C)[nH]c5c4)s3)cc2[nH]1)C(C)C` is 3400-fold lower in EC50: 35.5 nM for the first, 0.0103 nM for the second.

Going from `COC(=O)N[C@H](C(=O)N1CCC[C@H]1c1ncc(-c2ccc3c(c2)CN(C)C(=O)c2cc(-c4cnc([C@@H]5CCCN5C(=O)[C@@H](NC(=O)OC)C(C)C)[nH]4)ccc2-3)[nH]1)C(C)C` to `COC(=O)N[C@H](C(=O)N1CCC[C@H]1c1ncc(-c2ccc3c(c2)CCc2cc(-c4cnc([C@@H]5CCCN5C(=O)[C@@H](NC(=O)OC)C(C)C)[nH]4)ccc2-3)[nH]1)C(C)C`, the EC50 falls from 2.14 nM to 0.0099 nM (220-fold). The second is the more potent here.

`COC(=O)N[C@H](C(=O)N1CC[C@H]1c1nc2ccc(-c3ccc(-c4ccc(-c5cnc([C@@H]6CCCN6C(=O)[C@H](NC(=O)OC)c6ccccc6)[nH]5)cc4)cc3)cc2[nH]1)C(C)C` and `COC(=O)N[C@H](C(=O)N1CCC[C@H]1c1ncc(-c2ccc3cc(-c4ccc(-c5cnc([C@@H]6CCCN6C(=O)[C@H](OC)c6ccccc6)[nH]5)cc4)ccc3c2)[nH]1)C(C)C` are within 1.5-fold of each other in EC50: 0.0195 nM for the first, 0.0163 nM for the second.

First: COC(=O)N[C@H](C(=O)N1CCC[C@H]1c1nc2ccc(C#Cc3ccc4nc([C@@H]5CCCN5C(=O)[C@@H](NC(=O)OC)C(C)C)[nH]c4c3)cc2[nH]1)C(C)C
Second: CC[C@H](C)[C@H](NC(=O)OC)C(=O)N1CCC[C@H]1c1ncc(C#Cc2ccc3cc(-c4cnc([C@@H]5CCCN5C(=O)[C@@H](NC(=O)OC)[C@@H](C)CC)[nH]4)ccc3c2)[nH]1
The EC50 of the first is 9.5-fold higher: 0.139 nM for the first, 0.0147 nM for the second.

Compared with `COCC[C@H](NC(=O)OC)C(=O)N1[C@@H]2CC[C@@H](C2)[C@H]1c1ncc(-c2ccc(-c3ccc4cc(-c5cnc([C@@H]6CC7(CC7)CN6C(=O)[C@@H](NC(=O)OC)C(C)C)[nH]5)ccc4c3)cc2)[nH]1`, `COC(=O)N[C@H](C(=O)N1CC2(CC2)C[C@H]1c1ncc(-c2ccc3cc(-c4ccc(-c5cnc([C@@H]6[C@H]7CC[C@H](C7)N6C(=O)[C@@H](NC(=O)OC)C(C)OC)[nH]5)cc4)ccc3c2)[nH]1)C(C)OC` (stereo partly drawn) is 1.7-fold higher in EC50: 0.0119 nM for the first, 0.0201 nM for the second. The first is the more potent here.

Compared with `COC(=O)N[C@H](C(=O)N1CCC[C@H]1c1ncc(-c2ccc3c(c2)C(F)(F)c2cc(-c4ccc5nc([C@@H]6[C@H]7CC[C@H](C7)N6C(=O)[C@@H](NC(=O)OC)C(C)C)[nH]c5c4)ccc2-3)[nH]1)C(C)C`, `COC(=O)N[C@H](C(=O)N1C[C@@H](C#N)C[C@H]1c1ncc(-c2ccc3c(c2)C(F)(F)c2cc(-c4ccc5nc([C@@H]6[C@H]7CC[C@H](C7)N6C(=O)[C@@H](NC(=O)OC)C(C)C)[nH]c5c4)ccc2-3)[nH]1)C(C)C` is 2-fold higher in EC50: 0.0029 nM for the first, 0.0059 nM for the second. The first is the more potent here.

Going from `COC(=O)N[C@H](C(=O)N1C[C@@H](C#N)C[C@H]1c1ncc(-c2ccc(C#Cc3ccc(-c4cnc([C@@H]5CC6(CC6)CN5C(=O)[C@@H](NC(=O)OC)C(C)C)[nH]4)cc3)cc2)[nH]1)C(C)C` to `COC(=O)N[C@H](C(=O)N1CCC[C@H]1c1ncc(-c2ccc(-c3ccc(-c4cnc([C@@H]5CC6(CN5C(=O)[C@@H](NC(=O)OC)C(C)C)OCCO6)[nH]4)cc3)cc2)[nH]1)C(C)C`, the EC50 rises from 0.0149 nM to 0.0555 nM (3.7-fold). The first is the more potent here.

Compared with `COC(=O)N[C@H](C(=O)N1OC2(CCC2)C[C@H]1c1ncc(-c2ccc(-c3ccc(-c4cnc([C@@H]5CC6(CCC6)ON5C(=O)[C@@H](NC(=O)OC)C(C)C)[nH]4)cc3)cc2)[nH]1)C(C)C`, `COC(=O)N[C@H](C(=O)NC1(c2ncc(-c3ccc(-c4ccc(-c5cnc([C@@H]6CCCN6C(=O)[C@@H](NC(=O)OC)C(C)C)[nH]5)cc4)cc3)[nH]2)CCC1)C(C)C` is 3.4-fold higher in EC50: 0.0054 nM for the first, 0.0184 nM for the second. The first is the more potent here.

First: COC(=O)N[C@@H](C)C(=O)N1[C@@H]2CC[C@@H](C2)[C@H]1c1ncc(-c2ccc3cc(-c4ccc5cc(-c6cnc([C@@H]7CCCN7C(=O)[C@@H](NC(=O)OC)C(C)C)[nH]6)ccc5c4)ccc3c2)[nH]1
Second: COC(=O)N[C@@H](C)C(=O)N1CCC[C@H]1c1ncc(-c2ccc3cc(-c4ccc5cc(-c6cnc([C@@H]7[C@H]8CC[C@H](C8)N7C(=O)[C@H](C)NC(=O)OC)[nH]6)ccc5c4)ccc3c2)[nH]1
The EC50 of the first is 2.2-fold lower: 1.17 nM for the first, 2.61 nM for the second.

Going from `COC(=O)N[C@H](C(=O)N1CCC[C@H]1c1ncc(-c2ccc(-c3ccc(-c4cnc([C@@H]5CN(S(=O)(=O)c6ccccc6)CN5C(=O)[C@@H](NC(=O)OC)C(C)C)[nH]4)cc3)cc2)[nH]1)C(C)C` to `COC(=O)N[C@H](C(=O)N1CCC[C@H]1c1ncc(-c2ccc(-c3ccc(-c4cnc([C@@H]5CCCN5C(=O)[C@@H](NC(=O)OC)C(C)C)[nH]4)c(C#N)c3)cc2)[nH]1)C(C)C`, the EC50 falls from 0.0788 nM to 0.0192 nM (4.1-fold).

Going from `COC(=O)NC(C(=O)N1CCC[C@H]1c1ncc(-c2ccc(-c3ccc4cc(-c5cnc([C@@H]6CCCN6C(=O)C(NC(=O)OC)c6ccccc6)[nH]5)ccc4c3)cc2)[nH]1)c1ccccc1` (stereo partly drawn) to `COC(=O)NC(C(=O)N1CCC[C@H]1c1ncc(-c2ccc(-c3ccc4cc(-c5cnc([C@@H]6CCCN6C(=O)[C@@H](NC(=O)OC)C(C)C)[nH]5)ccc4c3)cc2)[nH]1)=C1CCOCC1`, the EC50 rises from 0.0228 nM to 0.0483 nM (2.1-fold).

First: COC(=O)N[C@H](C(=O)N1CCC[C@H]1C(=O)Nc1nccc2cc(-c3ccc(-c4cnc([C@@H]5CCCN5C(=O)[C@@H](NC(=O)OC)C(C)C)[nH]4)cc3)ccc12)C(C)C
Second: COC(=O)N[C@@H](CCC(F)(F)F)C(=O)N1CCC[C@H]1c1ncc(-c2ccc(-c3ccc(-c4cnc([C@@H]5CCCN5C(=O)[C@@H](NC(=O)OC)C(C)C)[nH]4)cc3)cc2)[nH]1
The EC50 of the first is 18-fold higher: 0.729 nM for the first, 0.04 nM for the second. The second is the more potent here.

Compared with `COC(=O)N[C@H](C(=O)N1CCC[C@H]1c1ncc(-c2ccc(-c3ccc(-c4cnc(CN5CCC[C@@H](NC(=O)OC)C5=O)[nH]4)cc3)cc2)[nH]1)C(C)C`, `COC(=O)N[C@H](C(=O)N1CC2(CC2)C[C@H]1c1ncc(-c2ccc3cc(-c4ccc(-c5cnc([C@@H]6CC7(CN6C(=O)[C@@H](NC(=O)OC)C(C)C)OCCO7)[nH]5)cc4)ccc3c2)[nH]1)C(C)C` is 38-fold lower in EC50: 0.239 nM for the first, 0.0063 nM for the second.

Compared with `COC(=O)N[C@H](C(=O)N1C[C@@H](C#N)C[C@H]1c1ncc(-c2ccc3c(c2)C(F)(F)c2cc(-c4ccc5nc([C@@H]6CC7(CC7)CN6C(=O)[C@@H](NC(=O)OC)C(C)C)[nH]c5c4)ccc2-3)[nH]1)C(C)C`, `COC(=O)N[C@@H](C)C(=O)N1[C@@H]2CC[C@@H](C2)[C@H]1c1nc2ccc(-c3ccc4c(c3)C(F)(F)c3cc(-c5cnc([C@@H]6CC7(CC7)CN6C(=O)[C@@H](NC(=O)OC)C(C)C)[nH]5)ccc3-4)cc2[nH]1` is 1.8-fold lower in EC50: 0.0064 nM for the first, 0.0036 nM for the second.

Compared with `COC(=O)N[C@H](C(=O)N1CCC[C@H]1c1nc(C(=O)N2CCC3(CC2)CCN(C(=O)c2c[nH]c([C@@H]4CCCN4C(=O)[C@@H](NC(=O)OC)C(C)C)n2)CC3)c[nH]1)C(C)C`, `COC(=O)N[C@H](C(=O)N1CCC[C@H]1c1ncc(-c2ccc3c(c2)sc2cc(-c4ccc5nc([C@@H]6[C@H]7CC[C@H](C7)N6C(=O)[C@@H](NC(=O)OC)C(C)C)[nH]c5c4)ccc23)[nH]1)C(C)C` is lower in EC50: greater than 44.4 nM for the first, 0.0037 nM for the second. The second is the more potent here.
